The record followed here is patent US6878738B1, “Anti-inflammatory oxo derivatives and hydroxy derivatives of pyrrolizines, and their pharmaceutical use” (Merckle GmbH, priority 1999, dated 2005).

The target in one series is T1, Cyclooxygenase-1 (Homo sapiens, UniProt P23219).
T1 construct: endogenous in cells; host or cells: human platelets isolated over a Percoll gradient
Put plainly: Inhibition of cyclooxygenase-1: prostaglandin E2 formed from human platelets after calcium ionophore, ELISA. The class given is cell-based. The settings on record: PGE2, read-out: IC50 COX-1. How it is done:
Test System for Determination of the Inhibition of Cyclooxygenase-1
In this test system, the amount of prostaglandin E2 formed from human platelets after addition of calcium ionophore is determined by means of ELISA. In this process, the platelets are obtained after centrifugation over a discontinuous Percoll® gradient. The enzyme reaction and the determination of the metabolites formed is carried out in principle as in the determination of 5-lipoxygenase inhibition. Differences exist with respect to the incubation time. Furthermore, the addition of a thromboxane synthase inhibitor is necessary (see Arch. Pharm. Med. Chem. 330, 307-312 (1997)).
Background: In an ELISA, binding on a coated surface is turned into a signal by an enzyme label.

A short description of series [1]: Determination of the partition coefficient n-octanol/water (OECD Guideline No. 117). The class given is physicochemical. How it is done: Determination of the Partition Coefficient
The partition coefficient P of the compounds was determined in the system n-octanol/water according to the OECD Guidline for Testing Chemicals, No. 117.

Another series deals with T2, 5-lipoxygenase (Homo sapiens, UniProt P09917).
T2 construct: Human granulocytes are used as a source of 5-lipoxygenase; endogenous in cells; host or cells: human granulocytes isolated from heparinised blood
T2 sequence (P09917 1-674): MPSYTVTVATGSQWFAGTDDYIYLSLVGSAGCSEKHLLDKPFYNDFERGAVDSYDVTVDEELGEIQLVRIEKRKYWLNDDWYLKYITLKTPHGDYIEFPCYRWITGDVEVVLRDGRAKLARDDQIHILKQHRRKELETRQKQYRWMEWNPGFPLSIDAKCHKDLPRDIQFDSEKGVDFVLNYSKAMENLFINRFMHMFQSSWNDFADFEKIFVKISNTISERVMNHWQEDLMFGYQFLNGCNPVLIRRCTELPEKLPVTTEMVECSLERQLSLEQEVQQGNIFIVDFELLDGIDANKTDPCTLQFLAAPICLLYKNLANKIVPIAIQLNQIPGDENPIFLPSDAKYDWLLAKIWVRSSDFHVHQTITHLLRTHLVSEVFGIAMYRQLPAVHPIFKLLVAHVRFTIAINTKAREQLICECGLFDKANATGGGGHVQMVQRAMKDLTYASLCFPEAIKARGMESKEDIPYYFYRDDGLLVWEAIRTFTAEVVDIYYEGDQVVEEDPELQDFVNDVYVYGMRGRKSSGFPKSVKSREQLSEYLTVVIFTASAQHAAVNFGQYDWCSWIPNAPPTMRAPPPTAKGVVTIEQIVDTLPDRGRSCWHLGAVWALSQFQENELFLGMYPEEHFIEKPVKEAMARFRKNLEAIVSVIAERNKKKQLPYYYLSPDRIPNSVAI
The series is described as follows: Inhibition of 5-lipoxygenase: LTB4 formation in human granulocytes stimulated with calcium ionophore A 23187, ELISA. The class given is cell-based. The note with it: read-out: IC50 5-LO. How it is done:
Test System for Determination of the Inhibition of 5-Lipoxygenase
Human granulocytes are used as a source of 5-lipoxygenase. By means of stimulation with calcium ionophore A 23187, LTB4 (leukotriene B4) is formed from endogenous arachidonic acid. The granulocytes are isolated and the enzyme reaction is carried out according to known processes (see Arch. Pharm. Med. Chem. 330, 307-312 (1997)).
The blood, protected from clotting with heparin, is centrifuged over a discontinuous Percoll® gradient and the granulocyte layer is removed by pipette. After lysis of the erythrocytes, the granulocytes are washed a number of times and then adjusted to a specific cell count. The enzyme reaction is then started in the presence or absence of the test substance after addition of Ca^2+ using calcium ionophore […]. The synthesis of the leukotrienes is stopped after 1.5 minutes. The samples are centrifuged off and the supernatant is diluted. LTB4 is determined quantitatively by means of ELISA.

Series [2] addresses T3, COX2 (from sheep placenta) (Ovis aries, UniProt P79208).
T3 construct: COX2 (from sheep placenta) is preincubated with test substance at 4° C. for 10 min; from tissue; host or cells: sheep placenta
T3 sequence (P79208 17-603): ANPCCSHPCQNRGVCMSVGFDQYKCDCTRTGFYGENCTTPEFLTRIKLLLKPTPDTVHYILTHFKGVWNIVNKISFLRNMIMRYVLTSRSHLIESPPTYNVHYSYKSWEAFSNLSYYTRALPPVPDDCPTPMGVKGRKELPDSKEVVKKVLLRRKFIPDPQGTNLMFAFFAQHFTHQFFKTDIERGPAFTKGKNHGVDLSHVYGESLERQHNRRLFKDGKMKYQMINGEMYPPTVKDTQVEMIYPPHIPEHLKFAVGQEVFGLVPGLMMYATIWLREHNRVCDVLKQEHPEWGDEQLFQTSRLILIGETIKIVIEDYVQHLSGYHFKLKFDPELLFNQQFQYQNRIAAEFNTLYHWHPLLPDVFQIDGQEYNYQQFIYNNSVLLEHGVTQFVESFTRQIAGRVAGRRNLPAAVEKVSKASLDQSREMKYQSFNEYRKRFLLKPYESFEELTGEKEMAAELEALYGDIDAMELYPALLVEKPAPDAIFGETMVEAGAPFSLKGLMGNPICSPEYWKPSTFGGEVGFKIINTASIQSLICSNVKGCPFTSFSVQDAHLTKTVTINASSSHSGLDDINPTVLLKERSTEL
The series is described as follows: Inhibition of cyclooxygenase-2: COX2 stimulated with arachidonic acid, PGE2 by ELISA. The settings on record: arachidonic acid 5 μM, read-out: IC50 COX-2. The class given is biochemical. How it is done: Test System for Determination of the Inhibition of Cyclooxygenase-2
COX2 (from sheep placenta) is preincubated with test substance at 4° C. for 10 min, then stimulated with arachidonic acid (5 μM) at 25° C. for 10 min. […] The determination is carried out at 3 dilutions (10^−7, 10^−6, 10^−5 M), and the PGE2 concentrations are quantified by means of ELISA (see Mitchell, J. A. et al. Proc. Nat. Acad. Sci 90: 11693-11697 (1993)).

Where two headings read alike, the source gives them in different places.

By IC50 is commonly meant the midpoint of a concentration-inhibition curve. For orientation: melting point means the temperature of the solid-liquid transition.

T1 sequence (P23219 24-599): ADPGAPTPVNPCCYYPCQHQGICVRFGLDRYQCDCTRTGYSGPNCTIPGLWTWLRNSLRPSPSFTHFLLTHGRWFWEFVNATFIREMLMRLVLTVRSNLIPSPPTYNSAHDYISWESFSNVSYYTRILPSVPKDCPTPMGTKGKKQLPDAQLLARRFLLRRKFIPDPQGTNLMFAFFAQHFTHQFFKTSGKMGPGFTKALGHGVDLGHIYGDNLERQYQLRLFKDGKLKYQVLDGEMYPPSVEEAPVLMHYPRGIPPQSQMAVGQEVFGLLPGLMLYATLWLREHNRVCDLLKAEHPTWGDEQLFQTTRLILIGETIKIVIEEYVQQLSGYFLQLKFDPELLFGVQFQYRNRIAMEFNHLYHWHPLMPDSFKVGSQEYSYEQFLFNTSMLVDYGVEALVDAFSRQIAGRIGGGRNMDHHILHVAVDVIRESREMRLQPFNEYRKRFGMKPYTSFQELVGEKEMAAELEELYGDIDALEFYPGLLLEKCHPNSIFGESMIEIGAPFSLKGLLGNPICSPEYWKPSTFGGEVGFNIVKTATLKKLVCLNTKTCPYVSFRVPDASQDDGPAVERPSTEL

As for `CC1(C)Cn2cc(-c3ccc(Cl)cc3)c(-c3ccccc3)c2C1=O` [Example 6, 6-(4-Chlorophenyl)-2,3-dihydro-2,2-dimethyl-1-oxo-7-phenyl-1H-pyrrolizine], the IC50 at Cyclooxygenase-1 was determined as 0.95 µM; on 5-lipoxygenase it was 0.23 µM. For the same compound, the chromatographic logP in series [1] (pH 2.5, read-out: Log P pH 2.5) was 5; in series [1] (pH 7.5, read-out: Log P pH 7.5) it was 5.1.
`CCOC(=O)C(=O)c1c(-c2ccc(Cl)cc2)c(-c2ccccc2)c2n1CC(C)(C)C2O` (centres unmarked) [Example 11, Ethyl 6-(4-Chlorophenyl)-2,3-dihydro-1-hydroxy-2,2-dimethyl-7-phenyl-1H-pyrrolizin-5-yl-2-oxoacetate]: the melting point was found to be 193 °C.
Take `COC1c2c(-c3ccccc3)c(-c3ccc(Cl)cc3)c(CC(=O)O)n2CC1(C)C` (centres unmarked) [Example 14, 6-(4-Chlorophenyl)-2,3-dihydro-1-methoxy-2,2-dimethyl-7-phenyl-1H-pyrrolizin-5-ylacetic Acid]: the IC50 at Cyclooxygenase-1 came out at 0.06 µM. For the same compound, the chromatographic logP was 4.5 in series [1] (pH 2.5, read-out: Log P pH 2.5) and 1.7 in series [1] (pH 7.5, read-out: Log P pH 7.5).
Turning to `Cc1c(-c2ccc(Cl)cc2)c(-c2ccccc2)c2n1CC(C)(C)C2O` (centres unmarked) [Example 15, 6-(4-Chlorophenyl)-2,3-dihydro-1-hydroxy-2,2,5-trimethyl-7-phenyl-1H-pyrrolizine], the melting point worked out at 133 °C.
For the compound `COC1c2c(-c3ccccc3)c(-c3ccc(Cl)cc3)c(C)n2CC1(C)C` (centres unmarked) [Example 16, 6-(4-Chlorophenyl)-2,3-dihydro-1-methoxy-2,2,5-trimethyl-7-phenyl-1H-pyrrolizine], the figures for the IC50 (on Cyclooxygenase-1; in series [2]) were 0.5 µM and 7.5 µM, respectively. For the same compound, the chromatographic logP in series [1] (pH 2.5, read-out: Log P pH 2.5) worked out at 5.1; in series [1] (pH 7.5, read-out: Log P pH 7.5), 6.7.
Regarding `CC1(C)Cn2c(CC(=O)O)c(-c3ccc(Cl)cc3)c(-c3ccccc3)c2C1=O` [Example 18, 6-(4-Chlorophenyl)-2,3-dihydro-2,2-dimethyl-1-oxo-7-phenyl-1H-pyrrolizin-5-ylacetic Acid], the values for the IC50 (at Cyclooxygenase-1; in series [2]) were 0.046 µM and 2.1 µM, respectively. Besides, the chromatographic logP was determined as 3.3 in series [1] (pH 2.5, read-out: Log P pH 2.5) and 1.1 in series [1] (pH 7.5, read-out: Log P pH 7.5).
For `CC1(C)Cc2c(-c3ccccc3)c(-c3ccc(Cl)cc3)c(OC(=O)c3ccccc3)n2C1` [Example 26, 2-(4-Chlorophenyl)-6,6-dimethyl-1-phenyl-6,7-dihydro-5H-pyrrolizin-3-yl Benzoate], the melting point turned out to be 193 °C.
`CC1(C)Cc2c(-c3ccccc3)c(-c3ccc(Cl)cc3)c(CC(=O)O)n2C1` [ML 3000, reference compound]: the half-inhibitory concentration (IC50) is 0.21 µM at Cyclooxygenase-1, 4.7 µM in series [2] and 0.18 µM at 5-lipoxygenase. Moreover, the chromatographic logP in series [1] (pH 2.5, read-out: Log P pH 2.5) came out at 4.8; in series [1] (pH 7.5, read-out: Log P pH 7.5), 1.9.
